Assays:
[1] = biological target: T1, human Nav1.5 channel (Homo sapiens, UniProt Q14524); assay: NaV1.5 sodium channel screening assay, PatchXpress automated electrophysiology, cardiac action potential waveform 1 Hz; format: cell-based; conditions: cardiac action potential waveform at 1 Hz; HEK cells; read-out: HNAv 1.5 Cardiac AP 1 Hz IC50
T1 construct: expressed in transfected cells; host or cells: HEK cells
Experimental: Inhibition of the TTX-resistant NaV1.5 sodium channel, a key cardiac ion channel, can have profound effects on the duration and amplitude of the cardiac action potential and can result in arrhythmias and other heart malfunctions. To assess the potential cardiac liability of compounds at an early stage in the drug discovery process, a NaV1.5 sodium channel screening assay is performed on Molecular Device's PatchXpress™ automated electrophysiology platform. Under voltage-calmp conditions, NaV1.5 currents were recorded from HEK cells expressing the human Nav1.5 channel in the absence and presence of increasing concentrations of the test compound to obtain an IC50 value. The external recording solution contained (in mM): 90 TEACl, 50 NaCl, 1.8 CaCl, 1 MgCl2, 10 HEPES, 10 glucose, adjusted to pH 7.4 with TEA-OH and to 300 mOsm with sucrose (if necessary), while the internal patch pipette solution contained (in mM): 129 CsF, 2 MgCl2, 11 EGTA, 10 HEPES, 3 Na2ATP adjusted to pH 7.2 with CsOH and to 290 mOsm with sucrose (if necessary). NaV1.5 channel currents were evoked using a cardiac action potential waveform at 1 Hz, digitized at 31.25 kHz and low-pass filtered at 12 kHz.

[2] = Rat Early Pharmacokinetic (EPK) study; format: in vivo; conditions: PO, 3 mg/kg, formulation PG (propylene glycol)
Experimental: Male Sprague-Dawley rats were dosed via oral (PO) gavage in the detailed formulation. Blood samples were collected from the animals at 6 timepoints out to 4 hours post-dose. Pharmacokinetic analysis was performed on the LC-MS/MS measured concentrations for each timepoint of each compound.

T1 sequence (Q14524 whole entry): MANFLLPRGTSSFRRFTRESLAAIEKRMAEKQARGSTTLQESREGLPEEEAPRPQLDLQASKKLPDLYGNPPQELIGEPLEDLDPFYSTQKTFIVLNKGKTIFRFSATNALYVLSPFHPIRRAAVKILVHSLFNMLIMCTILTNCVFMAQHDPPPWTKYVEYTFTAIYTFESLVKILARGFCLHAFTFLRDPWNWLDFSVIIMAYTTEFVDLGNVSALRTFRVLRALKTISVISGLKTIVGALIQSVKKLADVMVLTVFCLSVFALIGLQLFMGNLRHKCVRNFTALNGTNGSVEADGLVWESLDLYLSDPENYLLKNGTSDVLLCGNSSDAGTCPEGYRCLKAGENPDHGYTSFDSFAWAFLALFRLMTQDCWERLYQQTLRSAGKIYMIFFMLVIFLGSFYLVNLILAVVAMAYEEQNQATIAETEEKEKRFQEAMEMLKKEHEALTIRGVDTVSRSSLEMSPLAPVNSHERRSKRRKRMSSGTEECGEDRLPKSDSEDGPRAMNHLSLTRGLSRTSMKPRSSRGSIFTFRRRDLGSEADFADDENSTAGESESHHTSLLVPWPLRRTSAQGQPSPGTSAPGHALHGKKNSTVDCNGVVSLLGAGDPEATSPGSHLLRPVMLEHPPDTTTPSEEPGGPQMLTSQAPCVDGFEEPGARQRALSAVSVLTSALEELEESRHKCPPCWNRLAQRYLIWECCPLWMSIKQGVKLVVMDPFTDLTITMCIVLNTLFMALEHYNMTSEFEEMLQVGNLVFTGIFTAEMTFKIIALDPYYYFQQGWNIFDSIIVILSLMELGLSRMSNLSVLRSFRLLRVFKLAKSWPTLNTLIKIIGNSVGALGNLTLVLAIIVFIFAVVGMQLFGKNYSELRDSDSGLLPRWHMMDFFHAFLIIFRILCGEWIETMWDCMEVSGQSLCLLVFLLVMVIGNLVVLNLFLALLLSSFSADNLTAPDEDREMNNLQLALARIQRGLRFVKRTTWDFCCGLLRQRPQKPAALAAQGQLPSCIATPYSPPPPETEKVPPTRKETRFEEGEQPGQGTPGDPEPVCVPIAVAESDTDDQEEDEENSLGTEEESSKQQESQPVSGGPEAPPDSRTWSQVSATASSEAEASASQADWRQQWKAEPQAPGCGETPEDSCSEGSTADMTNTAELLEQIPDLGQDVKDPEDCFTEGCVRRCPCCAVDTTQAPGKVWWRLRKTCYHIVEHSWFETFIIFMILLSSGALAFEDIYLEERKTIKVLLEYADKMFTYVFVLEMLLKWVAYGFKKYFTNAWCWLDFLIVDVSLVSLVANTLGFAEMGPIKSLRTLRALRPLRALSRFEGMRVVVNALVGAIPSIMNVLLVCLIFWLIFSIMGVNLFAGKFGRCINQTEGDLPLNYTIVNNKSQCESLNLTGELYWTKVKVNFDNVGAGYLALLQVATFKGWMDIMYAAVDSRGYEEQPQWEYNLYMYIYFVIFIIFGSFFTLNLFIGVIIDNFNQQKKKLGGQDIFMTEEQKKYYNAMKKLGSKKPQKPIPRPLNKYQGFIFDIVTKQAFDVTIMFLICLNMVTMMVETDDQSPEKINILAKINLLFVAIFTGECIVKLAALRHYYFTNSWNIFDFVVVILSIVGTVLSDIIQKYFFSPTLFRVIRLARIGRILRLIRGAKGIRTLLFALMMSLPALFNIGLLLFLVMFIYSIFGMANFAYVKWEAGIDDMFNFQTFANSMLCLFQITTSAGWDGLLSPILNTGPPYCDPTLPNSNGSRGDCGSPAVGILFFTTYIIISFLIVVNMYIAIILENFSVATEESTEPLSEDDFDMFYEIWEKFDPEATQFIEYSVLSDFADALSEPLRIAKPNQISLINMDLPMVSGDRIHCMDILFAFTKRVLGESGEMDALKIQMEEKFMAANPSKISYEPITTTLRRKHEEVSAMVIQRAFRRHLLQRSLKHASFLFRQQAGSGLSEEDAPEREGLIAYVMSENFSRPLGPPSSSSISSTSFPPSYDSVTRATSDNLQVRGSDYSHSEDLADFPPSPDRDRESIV

With O=C(CN1CCNCC1)Nc1cc(C(F)(F)F)cc(C(F)(F)F)c1 [Compound 5, N-(3,5-bis(trifluoromethyl)phenyl)-2-(piperazin-1-yl)acetamide] the IC50 [1] was 40 µM, the “Dose Normalized AUC” value [2] was 108 nM·h and the “Dose Normalized Cmax” value [2] was 48 nM. The Tmax ([2]; male, Sprague-Dawley, blood) was 1.8 h.
